The values that follow come from patent US20260234136A1, “ISOXAZOLIDINES AS RIPK1 INHIBITORS AND USE THEREOF” (GENZYME CORPORATION, priority 2023, published 2026).

For the assay, the system named is U937 cells. Put plainly: Cellular assay in U937 cells to measure the activity of RIPK1-inhibitors on cell death (necroptosis). The format is cell-based. The note with it: Homo sapiens, U-937, 50 μM zVAD.fmk and 100 ng/ml recombinant human TNFα, overnight (18 to 24 hrs), MTS readout. The protocol:
Absorbance of formazan was read at 490 nm. The inhibitory activity of the test compound was quantified in a concentration response curve (CRC) experiment.
Compounds were obtained as 10 mM stock solutions and were diluted 1 to 10 volumes with DMSO to yield a 1 mM solution. From this solution 2 μl were diluted with 998 μl growth medium.
U937 cells were cultured in RPMI1640 Glutamax and 10% heat inactivated FBS. […] 50 μl of compound dilutions, as described in Cellular assay in U937 cells, were added and the cell suspension incubated overnight (18 to 24 hrs) at 37° C., 5% CO2 in a humidified atmosphere (95% rH).
CellTiter 96 Aqueous reagent was mixed (100 μl PMS (phenazine methosulfate) solution/2 ml MTS (3-(4,5-[…])-5-(3-carboxymethoxyphenyl)-2-(4-sulfophenyl)-2H-tetrazolium, inner salt) solution) and 20 μl were added per well. After 4 hrs incubation at 37° C. (5% CO2 95% rH) optical density was measured at 490 nm on a microplate reader (Tecan Infinite M1000).
The % inhibition is expressed as percentage of the maximal inhibition value obtained in the absence of TNFα/zVAD.fmc.
As a reminder, the IC50 is the concentration that gives 50% inhibition. In the case of `Cc1ccc([C@@H]2CCON2C(=O)C2CCN(c3ncc(F)c(-n4cccn4)n3)CC2)cn1` [Example 10, [1-(5-fluoro-4-pyrazol-1-yl-pyrimidin-2-yl)-4-piperidyl]-[(3S)-3-(6-methyl-3-pyridyl)isoxazolidin-2-yl]methanone], the IC50 is 4 nM.

With `Cc1ncc([C@@H]2CCON2C(=O)C2CCN(c3ncc(F)c(N4CCC5(CC5)C4=O)n3)CC2)cc1F` [Example 68, 5-[5-fluoro-2-[4-[(3S)-3-(5-fluoro-6-methylpyridin-3-yl)-1,2-oxazolidine-2-carbonyl]piperidin-1-yl]pyrimidin-4-yl]-5-azaspiro[2.4]heptan-4-one], the IC50 was 10000 nM.

On to `Cc1nccn1-c1nc(N2CCC(C(=O)N3OCC[C@H]3c3cncc(F)c3)CC2)ncc1F` [Example 64, [1-[5-fluoro-4-(2-methylimidazol-1-yl)pyrimidin-2-yl]piperidin-4-yl]-[(3S)-3-(5-fluoropyridin-3-yl)-1,2-oxazolidin-2-yl]methanone], for which the IC50 is 1 nM.

In the case of `O=C(C1CCN(c2cc(-c3cccnc3)ncn2)CC1)N1OCC[C@H]1c1cncc(F)c1` [Example 1, (S)-(3-(5-fluoropyridin-3-yl)isoxazolidin-2-yl)(1-(6-(pyridin-3-yl)pyrimidin-4-yl)piperidin-4-yl)methanone], the IC50 is 37 nM.

With `Cc1cnn(-c2cc(N3CCC(C(=O)N4OCC[C@H]4c4ccc(C)nc4)CC3)ncn2)c1` [Example 17, [1-[6-(4-methylpyrazol-1-yl)pyrimidin-4-yl]-4-piperidyl]-[(3S)-3-(6-methyl-3-pyridyl)isoxazolidin-2-yl]methanone], the IC50 amounted to 39 nM.

For `Cc1ncc([C@@H]2CCON2C(=O)C2CCN(c3cc(-c4ncnn4C)ncn3)CC2)cc1F` [Example 49, [(3S)-3-(5-fluoro-6-methylpyridin-3-yl)-1,2-oxazolidin-2-yl]-[1-[6-(2-methyl-1,2,4-triazol-3-yl)pyrimidin-4-yl]piperidin-4-yl]methanone], the IC50 was determined as 15 nM.

Turning to `Cc1ncc([C@@H]2CCON2C(=O)C2CCN(c3nccc(C4COC4)n3)CC2)cc1F` [Example 101, [(3S)-3-(5-fluoro-6-methylpyridin-3-yl)-1,2-oxazolidin-2-yl]-[1-[4-(oxetan-3-yl)pyrimidin-2-yl]piperidin-4-yl]methanone], the IC50 was 2600 nM.

For `Cc1ccc([C@@H]2CCON2C(=O)C2CCN(c3ccnc(N4CCCC4=O)n3)CC2)cn1` [Example 87, 1-[4-[4-[(3S)-3-(6-methylpyridin-3-yl)-1,2-oxazolidine-2-carbonyl]piperidin-1-yl]pyrimidin-2-yl]pyrrolidin-2-one], the IC50 was more than 10000 nM.

As for `O=C1CCCN1c1cc(N2CCC(C(=O)N3OCC[C@H]3c3cncc(F)c3)CC2)ncn1` [Example 86, 1-[6-[4-[(3S)-3-(5-fluoropyridin-3-yl)-1,2-oxazolidine-2-carbonyl]piperidin-1-yl]pyrimidin-4-yl]pyrrolidin-2-one], the IC50 was found to be 780 nM.

For the compound `Cc1nc([C@@H]2CCON2C(=O)C2CCN(c3nccc(N4CCC5(CC5)C4=O)n3)CC2)co1` [Example 54, 5-[2-[4-[(3S)-3-(2-methyl-1,3-oxazol-4-yl)-1,2-oxazolidine-2-carbonyl]piperidin-1-yl]pyrimidin-4-yl]-5-azaspiro[2.4]heptan-4-one], the IC50 came out at 51 nM.

As for `Cn1nccc1-c1cc(N2CCC(C(=O)N3OCC[C@H]3c3cnccn3)CC2)ncn1` [Example 28, (S)-(1-(6-(1-methyl-1H-pyrazol-5-yl)pyrimidin-4-yl)piperidin-4-yl)(3-(pyrazin-2-yl)isoxazolidin-2-yl)methanone], the IC50 worked out at 43 nM.

In the case of `Cc1ccc([C@@H]2CCON2C(=O)C2CCN(c3nccc(-c4ccnn4C)n3)CC2)cn1` [Example 15, [1-[4-(2-methylpyrazol-3-yl)pyrimidin-2-yl]-4-piperidyl]-[(3S)-3-(6-methyl-3-pyridyl)isoxazolidin-2-yl]methanone], the IC50 came to 1 nM.

On to `Cc1cn(-c2nc(N3CCC(C(=O)N4OCC[C@H]4c4cnccn4)CC3)ncc2F)c(C)n1` [Example 22, [1-[4-(2,4-dimethylimidazol-1-yl)-5-fluoro-pyrimidin-2-yl]-4-piperidyl]-[(3S)-3-pyrazin-2-ylisoxazolidin-2-yl]methanone], for which the IC50 is 2 nM.

Take `Cc1nccn1-c1ncnc(N2CCC(C(=O)N3OCC[C@H]3c3cnccn3)CC2)n1` [Example 26, (S)-(1-(4-(2-methyl-1H-imidazol-1-yl)-1,3,5-triazin-2-yl)piperidin-4-yl)(3-(pyrazin-2-yl)isoxazolidin-2-yl)methanone]: the IC50 amounted to 5 nM.

As to `O=C1OCCN1c1nc(N2CCC(C(=O)N3OCC[C@H]3c3cnccn3)CC2)ncc1F` [Example 5, 3-[5-fluoro-2-[4-[(3S)-3-pyrazin-2-ylisoxazolidine-2-carbonyl]-1-piperidyl]pyrimidin-4-yl]oxazolidin-2-one], the IC50 was found to be 5 nM.

`Cc1ccc([C@@H]2CCON2C(=O)C2CCN(c3ncnc(-n4ccnc4C)n3)CC2)cn1` [Example 35, [1-[4-(2-methylimidazol-1-yl)-1,3,5-triazin-2-yl]piperidin-4-yl]-[(3S)-3-(6-methylpyridin-3-yl)-1,2-oxazolidin-2-yl]methanone]: the IC50 was 2 nM.

For `Cc1ncc([C@@H]2CCON2C(=O)C2CCN(c3nccc(N4CCC5(CC5)C4=O)n3)CC2)cc1F` [Example 61, 5-[2-[4-[(3S)-3-(5-fluoro-6-methylpyridin-3-yl)-1,2-oxazolidine-2-carbonyl]piperidin-1-yl]pyrimidin-4-yl]-5-azaspiro[2.4]heptan-4-one], the IC50 worked out at 32 nM.

With `Cc1ccc([C@@H]2CCON2C(=O)C2CCN(c3nc(-c4ncco4)ncc3F)CC2)cn1` [Example 67, [1-[5-fluoro-2-(1,3-oxazol-2-yl)pyrimidin-4-yl]piperidin-4-yl]-[(3S)-3-(6-methylpyridin-3-yl)-1,2-oxazolidin-2-yl]methanone], the IC50 was 135 nM.

Take `Cc1ncc([C@@H]2CCON2C(=O)C2CCN(c3nccc(N4CCC(C)(C)C4=O)n3)CC2)cc1F` [Example 60, 1-[2-[4-[(3S)-3-(5-fluoro-6-methylpyridin-3-yl)-1,2-oxazolidine-2-carbonyl]piperidin-1-yl]pyrimidin-4-yl]-3,3-dimethylpyrrolidin-2-one]: the IC50 turned out to be 506 nM.

Turning to `Cc1cncc([C@@H]2CCON2C(=O)C2CCN(c3nccc(N4CCC(F)(F)C4=O)n3)CC2)c1` [Example 74, 3,3-difluoro-1-[2-[4-[(3S)-3-(5-methylpyridin-3-yl)-1,2-oxazolidine-2-carbonyl]piperidin-1-yl]pyrimidin-4-yl]pyrrolidin-2-one], the IC50 came to 175 nM.

As for `CN1CCN(c2ccnc(N3CCC(C(=O)N4OCC[C@H]4c4cncc(F)c4)CC3)n2)C1=O` [Example 62, 1-[2-[4-[(3S)-3-(5-fluoropyridin-3-yl)-1,2-oxazolidine-2-carbonyl]piperidin-1-yl]pyrimidin-4-yl]-3-methylimidazolidin-2-one], the IC50 was 41 nM.

Take `Cc1ccc([C@@H]2CCON2C(=O)C2CCN(c3nccc(N4CCC(F)(F)C4=O)n3)CC2)cn1` [Example 73, 3,3-difluoro-1-[2-[4-[(3S)-3-(6-methylpyridin-3-yl)-1,2-oxazolidine-2-carbonyl]piperidin-1-yl]pyrimidin-4-yl]pyrrolidin-2-one]: the IC50 came out at 551 nM.

For the compound `O=C(C1CCN(c2nccc(N3CCC(F)(F)C3=O)n2)CC1)N1OCC[C@H]1c1cnccn1` [Example 58, 3,3-difluoro-1-[2-[4-[(3S)-3-pyrazin-2-yl-1,2-oxazolidine-2-carbonyl]piperidin-1-yl]pyrimidin-4-yl]pyrrolidin-2-one], the IC50 stood at 65 nM.

`Cc1ccc([C@@H]2CCON2C(=O)C2CCN(c3nccc(N4CCC5(CC5)C4=O)n3)CC2)cn1` [Example 70, 5-[2-[4-[(3S)-3-(6-methylpyridin-3-yl)-1,2-oxazolidine-2-carbonyl]piperidin-1-yl]pyrimidin-4-yl]-5-azaspiro[2.4]heptan-4-one]: the IC50 turned out to be 107 nM.

As to `Cc1cncc([C@@H]2CCON2C(=O)C2CCN(c3nccc(N4CCOC4=O)n3)CC2)c1` [Example 36, 3-[2-[4-[(3S)-3-(5-methyl-3-pyridyl)isoxazolidine-2-carbonyl]-1-piperidyl]pyrimidin-4-yl]oxazolidin-2-one], the IC50 was 25 nM.

Turning to `Cc1nc([C@@H]2CCON2C(=O)C2CCN(c3nccc(N4CCCC4=O)n3)CC2)cs1` [Example 92, 1-[2-[4-[(3S)-3-(2-methyl-1,3-thiazol-4-yl)-1,2-oxazolidine-2-carbonyl]piperidin-1-yl]pyrimidin-4-yl]pyrrolidin-2-one], the IC50 came out at 18 nM.

In the case of `Cc1ncc([C@@H]2CCON2C(=O)C2CCN(c3nccc(C4CCO4)n3)CC2)cc1F` (single isomer, unassigned) [Example 98], the IC50 was 269 nM.

In the case of `Cc1ccc([C@@H]2CCON2C(=O)C2CCN(c3ccnc(N4CCCC5(CC5)C4=O)n3)CC2)cn1` [Example 90, 5-[4-[4-[(3S)-3-(6-methylpyridin-3-yl)-1,2-oxazolidine-2-carbonyl]piperidin-1-yl]pyrimidin-2-yl]-5-azaspiro[2.5]octan-4-one], the IC50 was 4430 nM.

In the case of `Cc1nc([C@@H]2CCON2C(=O)C2CCN(c3cc(-n4ccnc4C)ncn3)CC2)cs1` [Example 7, [1-[6-(2-methylimidazol-1-yl)pyrimidin-4-yl]-4-piperidyl]-[(3S)-3-(2-methylthiazol-4-yl)isoxazolidin-2-yl]methanone], the IC50 was determined as 9 nM.
